Laboratory results published in the supplement of paper PMC10307832.

How the values were obtained:
Assay in all cases: relative viability (nuclei count vs DMSO), 5 days (fraction); higher = more cells survive
Pictilisib + Pemetrexed = compound: CS(=O)(=O)N1CCN(Cc2cc3nc(-c4cccc5[nH]ncc45)nc(N4CCOCC4)c3s2)CC1 [Pictilisib] + Nc1nc2[nH]cc(CCc3ccc(C(=O)N[C@@H](CCC(=O)O)C(=O)O)cc3)c2c(=O)[nH]1 [Pemetrexed] (partner 0.2 µM)
Method in brief: (§1)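 Lung cancer cell lines in 1536-well plates got either a single drug or a fixed anchor-drug dose together with five library-drug doses (not always all listed) in √10 steps, by pin tool, on the day after seeding. Nuclei were counted after 5 days, and relative viability is the treated-to-vehicle ratio of nuclei counts. Values are medians of duplicate plates.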

Pictilisib + Bortezomib = compound: CS(=O)(=O)N1CCN(Cc2cc3nc(-c4cccc5[nH]ncc45)nc(N4CCOCC4)c3s2)CC1 [Pictilisib] + CC(C)C[C@H](NC(=O)[C@H](Cc1ccccc1)NC(=O)c1cnccn1)B(O)O [Bortezomib] (partner 0.002 µM)
Method in brief: as §1

MK-2206 + Trametinib = compound: NC1(c2ccc(-c3nc4ccn5c(=O)[nH]nc5c4cc3-c3ccccc3)cc2)CCC1 [MK-2206] + CC(=O)Nc1cccc(-n2c(=O)n(C3CC3)c(=O)c3c(Nc4ccc(I)cc4F)n(C)c(=O)c(C)c32)c1 [Trametinib] (partner 0.02 µM)
Method in brief: as §1

MK-2206 + Crizotinib = compound: NC1(c2ccc(-c3nc4ccn5c(=O)[nH]nc5c4cc3-c3ccccc3)cc2)CCC1 [MK-2206] + C[C@@H](Oc1cc(-c2cnn(C3CCNCC3)c2)cnc1N)c1c(Cl)ccc(F)c1Cl [Crizotinib] (partner 1 µM)
Method in brief: as §1

MK-2206 + AZD7762 = compound: NC1(c2ccc(-c3nc4ccn5c(=O)[nH]nc5c4cc3-c3ccccc3)cc2)CCC1 [MK-2206] + NC(=O)Nc1cc(-c2cccc(F)c2)sc1C(=O)N[C@H]1CCCNC1 [AZD7762] (partner 0.2 µM)
Method in brief: as §1

Cell Line | relative viability (Pictilisib + Pemetrexed; first compound 0.02 µM) | relative viability (Pictilisib + Pemetrexed; first compound 0.06325 µM) | relative viability (Pictilisib + Pemetrexed; first compound 0.6325 µM) | relative viability (Pictilisib + Pemetrexed; first compound 2 µM) | relative viability (Pictilisib + Bortezomib; first compound 0.02 µM) | relative viability (Pictilisib + Bortezomib; first compound 0.06325 µM) | relative viability (Pictilisib + Bortezomib; first compound 0.6325 µM) | relative viability (Pictilisib + Bortezomib; first compound 2 µM) | relative viability (MK-2206 + Trametinib; first compound 0.01 µM) | relative viability (MK-2206 + Trametinib; first compound 0.03162 µM) | relative viability (MK-2206 + Trametinib; first compound 0.3162 µM) | relative viability (MK-2206 + Trametinib; first compound 1 µM) | relative viability (MK-2206 + Crizotinib; first compound 0.01 µM) | relative viability (MK-2206 + Crizotinib; first compound 0.03162 µM) | relative viability (MK-2206 + Crizotinib; first compound 0.3162 µM) | relative viability (MK-2206 + Crizotinib; first compound 1 µM) | relative viability (MK-2206 + AZD7762; first compound 0.01 µM) | relative viability (MK-2206 + AZD7762; first compound 0.3162 µM) | relative viability (MK-2206 + AZD7762; first compound 1 µM) | relative viability (MK-2206 + AZD7762; first compound 0.03162 µM)
NCI-H2023 | 0.195 | 0.228 | 0.171 | 0.105 | 1.17 | 0.764 | 0.511 | 0.223 | 0.514 | 0.532 | 0.38 | 0.376 | 0.614 | 0.686 | 0.481 | 0.387 |  |  |  | 
Calu-6 |  |  |  |  | 1.09 | 0.933 | 0.925 | 0.894 |  |  |  |  | 0.717 | 0.856 | 0.786 | 0.729 |  |  |  | 
SW 900 | 0.499 | 0.478 | 0.477 | 0.27 |  |  |  |  | 0.809 |  | 0.702 | 0.86 |  |  |  |  | 0.531 | 0.591 | 0.728 | 
HOP-62 | 0.319 | 0.271 | 0.267 | 0.271 | 1.15 | 0.986 | 0.693 | 0.652 | 0.381 | 0.368 | 0.334 | 0.328 | 1.04 | 0.945 | 0.903 | 1.03 | 0.734 | 0.437 | 0.71 | 0.336
H3255 | 0.611 | 0.613 | 0.525 | 0.399 | 0.881 | 0.832 | 0.632 | 0.395 | 0.523 | 0.618 | 0.493 | 0.502 | 0.833 | 0.913 | 0.729 | 0.616 | 0.865 | 0.903 | 0.829 | 0.883
NCI-H1734 | 0.39 | 0.417 | 0.39 | 0.355 | 0.995 | 0.903 | 0.585 | 0.335 | 0.633 | 0.646 | 0.535 | 0.478 | 0.772 | 0.725 | 0.468 | 0.521 | 0.576 | 0.471 | 0.399 | 0.244
SK-MES-1 | 0.941 | 0.948 | 0.879 | 0.391 |  |  |  |  | 0.519 | 0.47 | 0.467 | 0.515 | 0.953 | 1.02 | 1.04 | 0.816 |  |  |  | 
NCI-H1792 | 0.924 | 0.954 | 0.553 | 0.177 | 0.986 | 0.962 | 0.835 | 0.418 | 0.363 | 0.395 | 0.365 | 0.296 | 0.968 | 1 | 0.999 | 0.944 | 0.613 | 0.529 | 0.293 | 0.702
EKVX | 0.371 | 0.354 | 0.366 | 0.221 | 1.13 | 0.937 | 0.66 | 0.394 | 0.326 | 0.398 | 0.275 | 0.289 | 0.897 | 1.1 | 0.858 | 0.868 | 0.738 | 0.751 | 0.704 | 0.886
EPLC-272H | 0.297 | 0.342 | 0.231 | 0.185 | 0.971 | 1.12 | 0.607 | 0.615 | 0.266 | 0.307 | 0.298 | 0.312 | 0.951 | 0.928 |  | 1.01 | 0.23 | 0.202 | 0.175 | 0.185
LK-2 | 0.247 | 0.281 | 0.116 | 0.14 |  |  |  |  | 0.826 | 0.775 | 0.694 | 0.602 | 0.211 | 0.236 | 0.229 | 0.211 | 0.325 | 0.259 | 0.182 | 0.312
CAL-12T | 1.31 | 1.4 | 1.18 | 1.04 | 1.13 | 1.15 | 0.816 | 0.527 | 0.406 | 0.307 | 0.307 | 0.313 | 0.546 | 0.688 | 0.488 | 0.491 | 0.617 | 0.716 | 0.664 | 0.455
NCI-H322M | 0.541 | 0.616 | 0.584 | 0.239 | 1.11 | 1.2 | 0.873 | 0.907 | 0.475 | 0.505 | 0.495 | 0.546 | 0.934 | 0.986 | 0.941 | 0.979 | 0.58 | 0.563 | 0.516 | 0.576
NCI-H1650 | 0.325 | 0.361 | 0.358 | 0.302 | 0.199 | 0.205 | 0.207 | 0.172 | 0.54 | 0.649 | 0.612 | 0.643 | 0.97 | 1.04 | 1.04 | 0.751 |  |  |  | 
NCI-H2342 | 0.695 | 0.782 | 0.677 | 0.528 |  |  |  |  | 0.909 | 0.8 | 0.664 | 0.682 |  |  |  |  | 0.527 | 0.423 | 0.376 | 0.478
SW 1573 | 0.845 | 0.91 | 0.52 | 0.424 | 0.822 | 1.08 | 0.775 | 0.333 | 0.608 | 0.516 | 0.444 | 0.489 | 0.814 | 0.762 | 0.493 | 0.748 |  |  |  | 
NCI-H2405 | 1.3 | 1.01 | 0.778 | 0.416 | 1.03 | 0.961 | 0.919 | 0.651 | 0.697 | 0.682 | 0.668 | 0.533 | 0.79 | 0.858 | 0.83 | 0.786 | 0.824 | 0.838 | 0.534 | 0.769
LCLC-103H | 0.468 | 0.419 | 0.475 | 0.428 | 1.02 | 0.982 | 0.779 | 0.775 | 0.691 | 0.635 | 0.666 | 0.659 | 0.989 | 0.963 | 0.99 | 1.04 | 0.751 | 0.765 | 0.712 | 0.818
